Experimental data published in ChEMBL document CHEMBL1144001, “Synthesis and GABA(A) receptor activity of oxygen-bridged neurosteroid analogs” (Bioorg Med Chem, 2008).

assay: Displacement of [3H]TBOB from GABAA receptor in Sprague-Dawley rat cerebral cortex; assay type: tissue-based

Row | Compound | IC50
1 | CC(=O)[C@H]1CC[C@H]2[C@@H]3CC[C@@H]4C[C@H](O)C[C@@H]5O[C@H](C[C@]12C)[C@@H]3[C@]45C | 420 nM
2 | CC(=O)[C@H]1CC[C@H]2[C@@H]3CCC4=C[C@H](O)CC[C@@]45CO[C@@H](C[C@]12C)[C@@H]35 | 518 nM
3 | CC(=O)[C@H]1CC[C@H]2[C@@H]3CC[C@H]4C[C@H](O)C[C@H]5O[C@H](C[C@]12C)[C@@H]3[C@]45C | 741 nM
4 | CC(=O)[C@H]1CC[C@H]2[C@@H]3CC[C@H]4C[C@H](O)CC[C@]4(C)[C@H]3CC[C@]12C [BREXANOLONE] | 329 nM
5 | CC(=O)[C@H]1CC[C@H]2[C@@H]3CC[C@@H]4C[C@H](O)CC[C@]4(C)[C@H]3CC[C@]12C [ELTANOLONE] | 830 nM
